Laboratory results published in ChEMBL document CHEMBL1201861, “Genomics of Drug Sensitity in Cancer screening data, Wellcome Trust Sanger Institute”.

Assays:
Assay in all cases: cells
LB831-BLC = format: functional, cell-based, Homo sapiens; conditions: Homo sapiens, LB831-BLC
Description: SANGER: Inhibition of human LB831-BLC cell growth in a cell viability assay.

LXF-289 cell line = format: functional, cell-based; conditions: Homo sapiens
Description: SANGER: Inhibition of human LXF-289 cell growth in a cell viability assay.

J-RT3-T3-5 = format: functional, cell-based, Homo sapiens; conditions: Homo sapiens, J-RT3-T3-5
Description: SANGER: Inhibition of human J-RT3-T3-5 cell growth in a cell viability assay.

KM12 = format: functional, cell-based, Homo sapiens; conditions: Homo sapiens, KM12
Description: SANGER: Inhibition of human KM12 cell growth in a cell viability assay.

SK-PN-DW = format: functional, cell-based, Homo sapiens; conditions: Homo sapiens, SK-PN-DW
Description: SANGER: Inhibition of human SK-PN-DW cell growth in a cell viability assay.

UACC-257 = format: functional, cell-based, Homo sapiens; conditions: Homo sapiens, UACC-257
Description: SANGER: Inhibition of human UACC-257 cell growth in a cell viability assay.

GI-ME-N = format: functional, cell-based, Homo sapiens; conditions: Homo sapiens, GI-ME-N
Description: SANGER: Inhibition of human GI-ME-N cell growth in a cell viability assay.

TE-10 = format: functional, cell-based, Homo sapiens; conditions: Homo sapiens, TE-10
Description: SANGER: Inhibition of human TE-10 cell growth in a cell viability assay.

RCC10RGB = format: functional, cell-based, Homo sapiens; conditions: Homo sapiens, RCC10RGB
Description: SANGER: Inhibition of human RCC10RGB cell growth in a cell viability assay.

HD-MY-Z = format: functional, cell-based, Homo sapiens; conditions: Homo sapiens, HD-MY-Z
Description: SANGER: Inhibition of human HD-MY-Z cell growth in a cell viability assay.

NCI-H23 = format: functional, cell-based, Homo sapiens; conditions: Homo sapiens, NCI-H23
Description: SANGER: Inhibition of human NCI-H23 cell growth in a cell viability assay.

COLO-829 = format: functional, cell-based, Homo sapiens; conditions: Homo sapiens, COLO-829
Description: SANGER: Inhibition of human COLO-829 cell growth in a cell viability assay.

HL-60 = format: functional, cell-based, Homo sapiens; conditions: Homo sapiens, HL-60
Description: SANGER: Inhibition of human HL-60 cell growth in a cell viability assay.

GR-ST = format: functional, cell-based, Homo sapiens; conditions: Homo sapiens, GR-ST
Description: SANGER: Inhibition of human GR-ST cell growth in a cell viability assay.

CCRF-CEM = format: functional, cell-based, Homo sapiens; conditions: Homo sapiens, CCRF-CEM
Description: SANGER: Inhibition of human CCRF-CEM cell growth in a cell viability assay.

MOLT-4 = format: functional, cell-based, Homo sapiens; conditions: Homo sapiens, MOLT-4
Description: SANGER: Inhibition of human MOLT-4 cell growth in a cell viability assay.

SJSA-1 = format: functional, cell-based, Homo sapiens; conditions: Homo sapiens, SJSA-1
Description: SANGER: Inhibition of human SJSA-1 cell growth in a cell viability assay.

MV4-11 = format: functional, cell-based, Homo sapiens, MV-4-11; conditions: Homo sapiens, MV4-11
Description: SANGER: Inhibition of human MV-4-11 cell growth in a cell viability assay.

SK-N-DZ = format: functional, cell-based, Homo sapiens; conditions: Homo sapiens, SK-N-DZ; read-out: IC50
Description: SANGER: Inhibition of human SK-N-DZ cell growth in a cell viability assay.

LB996-RCC = format: functional, cell-based, Homo sapiens; conditions: Homo sapiens, LB996-RCC
Description: SANGER: Inhibition of human LB996-RCC cell growth in a cell viability assay.

D283 Med = format: functional, cell-based, Homo sapiens; conditions: Homo sapiens, D283 Med
Description: SANGER: Inhibition of human D-283MED cell growth in a cell viability assay.

CW-2 = format: functional, cell-based, Homo sapiens; conditions: Homo sapiens, CW-2
Description: SANGER: Inhibition of human CW-2 cell growth in a cell viability assay.

EKVX = format: functional, cell-based, Homo sapiens; conditions: Homo sapiens, EKVX
Description: SANGER: Inhibition of human EKVX cell growth in a cell viability assay.

ONS-76 = format: functional, cell-based, Homo sapiens; conditions: Homo sapiens, ONS-76
Description: SANGER: Inhibition of human ONS-76 cell growth in a cell viability assay.

MHH-NB-11 = format: functional, cell-based, Homo sapiens; conditions: Homo sapiens, MHH-NB-11
Description: SANGER: Inhibition of human MHH-NB-11 cell growth in a cell viability assay.

K5 = format: functional, cell-based, Homo sapiens; conditions: Homo sapiens, K5
Description: SANGER: Inhibition of human K5 cell growth in a cell viability assay.

NCI-H1650 = format: functional, cell-based, Homo sapiens; conditions: Homo sapiens, NCI-H1650
Description: SANGER: Inhibition of human NCI-H1650 cell growth in a cell viability assay.

BB49-HNC = format: functional, cell-based, Homo sapiens; conditions: Homo sapiens, BB49-HNC
Description: SANGER: Inhibition of human BB49-HNC cell growth in a cell viability assay.

KALS-1 = format: functional, cell-based, Homo sapiens; conditions: Homo sapiens, KALS-1; read-out: IC50
Description: SANGER: Inhibition of human KALS-1 cell growth in a cell viability assay.

NEC8 = format: functional, cell-based, Homo sapiens; conditions: Homo sapiens, NEC8
Description: SANGER: Inhibition of human NEC8 cell growth in a cell viability assay.

PSN1 = format: functional, cell-based, Homo sapiens; conditions: Homo sapiens, PSN1
Description: SANGER: Inhibition of human PSN1 cell growth in a cell viability assay.

RPMI-8226 = format: functional, cell-based, Homo sapiens; conditions: Homo sapiens, RPMI-8226
Description: SANGER: Inhibition of human RPMI-8226 cell growth in a cell viability assay.

AM-38 = format: functional, cell-based, Homo sapiens; conditions: Homo sapiens, AM-38
Description: SANGER: Inhibition of human AM-38 cell growth in a cell viability assay.

KP-N-YS = format: functional, cell-based, Homo sapiens; conditions: Homo sapiens, KP-N-YS
Description: SANGER: Inhibition of human KP-N-YS cell growth in a cell viability assay.

Lu-65 = format: functional, cell-based, Homo sapiens; conditions: Homo sapiens, Lu-65
Description: SANGER: Inhibition of human LU-65 cell growth in a cell viability assay.

MHH-PREB-1 = format: functional, cell-based, Homo sapiens; conditions: Homo sapiens, MHH-PREB-1
Description: SANGER: Inhibition of human MHH-PREB-1 cell growth in a cell viability assay.

KNS-81-FD = format: functional, cell-based, Homo sapiens; conditions: Homo sapiens, KNS-81-FD
Description: SANGER: Inhibition of human KNS-81-FD cell growth in a cell viability assay.

NCI-H720 = format: functional, cell-based, Homo sapiens; conditions: Homo sapiens, NCI-H720
Description: SANGER: Inhibition of human NCI-H720 cell growth in a cell viability assay.

NH-12 = format: functional, cell-based, Homo sapiens; conditions: Homo sapiens, NH-12
Description: SANGER: Inhibition of human NH-12 cell growth in a cell viability assay.

A253 cell line = format: functional, cell-based, Homo sapiens; conditions: Homo sapiens, A253
Description: SANGER: Inhibition of human A253 cell growth in a cell viability assay.

KG-1 = format: functional, cell-based, Homo sapiens; conditions: Homo sapiens, KG-1
Description: SANGER: Inhibition of human KG-1 cell growth in a cell viability assay.

HT-144 = format: functional, cell-based, Homo sapiens; conditions: Homo sapiens, HT-144
Description: SANGER: Inhibition of human HT-144 cell growth in a cell viability assay.

HCC1187 = format: functional, cell-based, Homo sapiens; conditions: Homo sapiens, HCC1187
Description: SANGER: Inhibition of human HCC1187 cell growth in a cell viability assay.

LS-1034 = format: functional, cell-based, Homo sapiens; conditions: Homo sapiens, LS-1034
Description: SANGER: Inhibition of human LS-1034 cell growth in a cell viability assay.

DEL = format: functional, cell-based, Homo sapiens; conditions: Homo sapiens, DEL
Description: SANGER: Inhibition of human DEL cell growth in a cell viability assay.

U-87 MG = format: functional, cell-based, Homo sapiens, U-87MG ATCC; conditions: Homo sapiens, U-87 MG
Description: SANGER: Inhibition of human U-87-MG cell growth in a cell viability assay.

MEG-01 = format: functional, cell-based, Homo sapiens; conditions: Homo sapiens, MEG-01
Description: SANGER: Inhibition of human MEG-01 cell growth in a cell viability assay.

SK-LMS-1 = format: functional, cell-based, Homo sapiens; conditions: Homo sapiens, SK-LMS-1
Description: SANGER: Inhibition of human SK-LMS-1 cell growth in a cell viability assay.

## CC1(C)CCC(c2ccc(Cl)cc2)=C(CN2CCN(c3ccc(C(=O)NS(=O)(=O)c4ccc(N[C@H](CCN5CCOCC5)CSc5ccccc5)c(S(=O)(=O)C(F)(F)F)c4)cc3)CC2)C1 [NAVITOCLAX]
LB831-BLC
  IC50: > 2000 nM
LXF-289 cell line
  IC50: > 2000 nM
J-RT3-T3-5
  IC50: 608 nM
KM12
  IC50: > 2000 nM
SK-PN-DW
  IC50: > 2000 nM
UACC-257
  IC50: > 2000 nM
GI-ME-N
  IC50: > 2000 nM
TE-10
  IC50: > 2000 nM
RCC10RGB
  IC50: > 2000 nM
HD-MY-Z
  IC50: > 2000 nM
NCI-H23
  IC50: > 2000 nM
COLO-829
  IC50: > 2000 nM
HL-60
  IC50: 29.1 nM
GR-ST
  IC50: > 2000 nM
CCRF-CEM
  IC50: 335 nM
MOLT-4
  IC50: 152 nM
SJSA-1
  IC50: > 2000 nM
MV4-11
  IC50: 15.9 nM
SK-N-DZ
  IC50: > 2000 nM
LB996-RCC
  IC50: > 2000 nM
D283 Med
  IC50: 177 nM
CW-2
  IC50: > 2000 nM
EKVX
  IC50: > 2000 nM
ONS-76
  IC50: > 2000 nM
MHH-NB-11
  IC50: > 2000 nM
K5
  IC50: > 2000 nM
NCI-H1650
  IC50: > 2000 nM
BB49-HNC
  IC50: > 2000 nM
KALS-1
  IC50: > 2000 nM
NEC8
  IC50: > 2000 nM
PSN1
  IC50: > 2000 nM
RPMI-8226
  IC50: 457 nM
AM-38
  IC50: > 2000 nM
KP-N-YS
  IC50: 1160 nM
Lu-65
  IC50: > 2000 nM
MHH-PREB-1
  IC50: > 2000 nM
KNS-81-FD
  IC50: 440 nM
NCI-H720
  IC50: 40.1 nM
NH-12
  IC50: 107 nM
A253 cell line
  IC50: > 2000 nM
KG-1
  IC50: 44.9 nM
HT-144
  IC50: > 2000 nM
HCC1187
  IC50: > 2000 nM
LS-1034
  IC50: > 2000 nM
DEL
  IC50: 1750 nM
U-87 MG
  IC50: > 2000 nM
MEG-01
  IC50: 583 nM

## NC(=O)Nc1cc(-c2cccc(F)c2)sc1C(=O)N[C@H]1CCCNC1 [AZD-7762]
LB831-BLC
  IC50: > 2000 nM
LXF-289 cell line
  IC50: 676 nM
J-RT3-T3-5
  IC50: 267 nM
KM12
  IC50: 51.6 nM
SK-PN-DW
  IC50: 119 nM
UACC-257
  IC50: > 2000 nM
GI-ME-N
  IC50: 455 nM
TE-10
  IC50: 910 nM
RCC10RGB
  IC50: > 2000 nM
HD-MY-Z
  IC50: 62.5 nM
NCI-H23
  IC50: 248 nM
COLO-829
  IC50: 298 nM
HL-60
  IC50: 774 nM
GR-ST
  IC50: 178 nM
CCRF-CEM
  IC50: 292 nM
MOLT-4
  IC50: 239 nM
SJSA-1
  IC50: 417 nM
MV4-11
  IC50: < 7.81 nM
SK-N-DZ
  IC50: 531 nM
D283 Med
  IC50: 137 nM
CW-2
  IC50: > 2000 nM
EKVX
  IC50: > 2000 nM
ONS-76
  IC50: 62 nM
MHH-NB-11
  IC50: 390 nM
K5
  IC50: 941 nM
NCI-H1650
  IC50: 1040 nM
BB49-HNC
  IC50: 1400 nM
KALS-1
  IC50: 326 nM
NEC8
  IC50: 42 nM
PSN1
  IC50: 591 nM
RPMI-8226
  IC50: 175 nM
AM-38
  IC50: > 2000 nM
KP-N-YS
  IC50: 584 nM
Lu-65
  IC50: > 2000 nM
MHH-PREB-1
  IC50: 34.4 nM
KNS-81-FD
  IC50: > 2000 nM
SK-LMS-1
  IC50: > 2000 nM
NCI-H720
  IC50: 402 nM
NH-12
  IC50: 357 nM
KG-1
  IC50: 845 nM
HT-144
  IC50: 338 nM
HCC1187
  IC50: 967 nM
LS-1034
  IC50: > 2000 nM
DEL
  IC50: 45.9 nM
U-87 MG
  IC50: 1210 nM
MEG-01
  IC50: 346 nM

## CC1=C(/C=C/C(C)=C/C=C/C(C)=C/C(=O)O)C(C)(C)CCC1 [TRETINOIN]
LB831-BLC
  IC50: > 10000 nM
LXF-289 cell line
  IC50: > 10000 nM
J-RT3-T3-5
  IC50: > 10000 nM
KM12
  IC50: > 10000 nM
SK-PN-DW
  IC50: > 10000 nM
UACC-257
  IC50: > 10000 nM
GI-ME-N
  IC50: > 10000 nM
TE-10
  IC50: > 10000 nM
RCC10RGB
  IC50: > 10000 nM
HD-MY-Z
  IC50: > 10000 nM
NCI-H23
  IC50: > 10000 nM
COLO-829
  IC50: > 10000 nM
HL-60
  IC50: 285 nM
GR-ST
  IC50: > 10000 nM
CCRF-CEM
  IC50: > 10000 nM
MOLT-4
  IC50: > 10000 nM
SJSA-1
  IC50: > 10000 nM
MV4-11
  IC50: 21 nM
SK-N-DZ
  IC50: > 10000 nM
D283 Med
  IC50: 283 nM
CW-2
  IC50: > 10000 nM
EKVX
  IC50: > 10000 nM
ONS-76
  IC50: > 10000 nM
MHH-NB-11
  IC50: > 10000 nM
K5
  IC50: > 10000 nM
NCI-H1650
  IC50: > 10000 nM
BB49-HNC
  IC50: > 10000 nM
KALS-1
  IC50: > 10000 nM
NEC8
  IC50: > 10000 nM
PSN1
  IC50: > 10000 nM
RPMI-8226
  IC50: 993 nM
AM-38
  IC50: > 10000 nM
KP-N-YS
  IC50: > 10000 nM
Lu-65
  IC50: > 10000 nM
MHH-PREB-1
  IC50: > 10000 nM
KNS-81-FD
  IC50: > 10000 nM
SK-LMS-1
  IC50: > 10000 nM
NCI-H720
  IC50: 1030 nM
NH-12
  IC50: > 10000 nM
KG-1
  IC50: > 10000 nM
HT-144
  IC50: > 10000 nM
HCC1187
  IC50: > 10000 nM
LS-1034
  IC50: > 10000 nM
DEL
  IC50: > 10000 nM
U-87 MG
  IC50: > 10000 nM
MEG-01
  IC50: 9610 nM
